The subject of data set [1] is HCV NS5A protein in 9-13 replicon cells. Description: Replicon quantitative Western blot assay (HEPC_REPLICON-ICWESTERN). The data set is classed as cell-based. The settings on record: Hepatitis C virus, read-out: HEPC_REPLICON-ICWESTERN Result Value. The procedure: Alternatively, the inhibitory activity of the metabolically active agents of the prodrugs can be confirmed using a quantitative Western immunoblot assay utilizing antibodies specific for HCV non-structural proteins, such as NS3, NS4A NS5A and NS5B. In one embodiment of this assay, replicon cells are treated with varying concentrations of test prodrug to determine the concentration of the metabolically active agent of the test prodrug that yields a 50% reduction in the amount of a non-structural protein produced as compared to a control sample (IC50). A single non-structural protein may be quantified or multiple non-structural proteins may be quantified. Antibodies suitable for carrying out such immunoblot assays are available commercially (e.g., from BIODESIGN International, Saco, Me.).
Certain prodrugs of the invention, which may inhibit HCV translation or replication prior to metablism and/or are metabolized into active agents, were also tested for their ability to inhibit HCV replication using a quantitative Western blot analysis with antibodies specific for the HCV NS5A or other non-structural proteins. Actively dividing 9-13 replicon cells were seeded into 6-well plates at a density of 1×10^5 cells/well in a volume of 2 ml/well and incubated at 37° C. and 5% CO2 for 24 hours. Various concentrations of test prodrugs (in a volume of 10 ul) were added to the wells and the cells incubated for another 48 hours. Protein samples were prepared from the cultured cells, resolved on a SDS-PAGE gel and transferred to a nitrocellulose membrane. The membrane was blocked with 5% non-fat milk in PBS for 1 hour at room temperature. Primary antibody (anti NS5A antibody; BIODESIGN International, Saco, Me.) incubation was performed for 1 hour at room temperature, after which the membrane was washed 3 times (for 15 min per time) with PBST (PBS plus 0.1% Tween 20). Horseradish peroxidase conjugated secondary antibody incubation was performed for 1 hour at room temperature and the membrane was washed 3 times (for 15 min per time) with PBST. The membrane was then soaked in substrate solution (Pierce) and exposed to a film or quantified using an imager. In this assay, the amount of test prodrug that is believed to be transformed into an active agent under the given conditions that yielded a 50% reduction in the amount of NS5A protein translated as compared to a control sample (IC50) was determined.

Data set [2] deals with HCV replicon in 5-2 Luc replicon-comprising cells. The data set is described as follows: HCV replicon assay (luciferase; HEPC_REPLICON-LUC). In kind it is cell-based, Hepatitis C virus. The settings on record: Hepatitis C virus. The source says: In one embodiment, the inhibitory activity of the metabolically active agent of the prodrug can be confirmed in a replicon assay that assesses the ability of a test compound to block or inhibit HCV replication in replicon cells. One example of a suitable replicon assay is the liver cell-line Huh 7-based replicon assay described in Lohmann et al., 1999, Science 285:110-113. A specific example of this replicon assay which utilizes luciferase translation is provided in the Examples Section. In one embodiment of this assay, the amount of test prodrug that yields a 50% reduction in translation as compared to a control cell (IC50) may be determined.
The inhibitory activity of certain prodrugs of the invention, which may inhibit HCV translation or replication prior to metablism and/or are metabolized into active agents, was confirmed using an HCV replicon assay. The HCV replicon can include such features as the HCV 5′ untranslated region including the HCV IRES, the HCV 3′ untranslated region, selected HCV genes encoding HCV polypeptides, selectable markers, and a reporter gene such as luciferase, GFP, etc. In the assay, actively dividing 5-2 Luc replicon-comprising cells (obtained from Ralf Bartenschlager; see Lohmann et al., 1999, Science 285:110-113) were seeded at a density of between about 5,000 and 7,500 cells/well onto 96 well plates (about 90 µl of cells per well) and incubated at 37° C. and 5% CO2 for 24 hours. Then, the test prodrug (in a volume of about 10 PI) was added to the wells at various concentrations and the cells were incubated for an additional 24-48 hours before luciferase assay. The media was aspirated from each well and Bright-Glo (Promega, Madison, WI) luciferase assay reagents were added to each well according to the manufacturer's instructions. Briefly, the BrightGlo reagent was diluted 1:1 with PBS and 100 µl of diluted reagent was added to each well. After 5 min of incubation at room temperature, luciferin emission was quantified with a luminometer. In this assay, the amount of test prodrug that yielded a 50% reduction in luciferase emission (IC50) was determined. This IC50 value may represent the antiviral activity of the prodrug itself, the activity of prodrug transformed into its active metabolized form, or a combination of the two.
In TABLES 3 through 12, a value of “+” indicates an IC50 of 10 μM or less in the specified assay; a value of “−” indicates an IC50 of greater than 10 μM in the specified assay.
In general terms: A replicon is a self-replicating genome or part of one, used to study replication in cells.

Data set [3] can be described thus: Biliary excretion in rats after oral administration. In kind it is in vivo. The settings on record: rat, four hours after oral administration. As to the method:
Evidence for the conversion of prodrug 1107 to its active metabolite in rat liver was obtained by measuring prodrug and active compound concentrations in bile fluid.
(§1) Compounds were dissolved in a mixture of TPGS:PEG:PG (35%:60%:5%) and diluted with saline for oral administration. Typically, 6.5mg of compound was dissolved in 1 ml of the organic mixture and added to 5.5 ml of saline. Animals were dosed with 5 ml/kg of this mixture to give a typical dose of 5 mg/kg. All animal studies were conducted in male SpraqueDawley rats and the animals were fasted overnight prior to dose administration. Surgeries (to implant blood sampling cannula) were conducted at least two days prior to the study. Blood samples (100 μl) were collected using sodium heparin as anticoagulant and added to 300 μl of a mixture of acetate buffer (100 mM, pH=6.5):acetonitrile:ethanol:DMSO (2:1:1:2 v/v). Samples were centrifuged and the supernatant was analyzed by LC/MS/MS using the procedures outlined above. Standard were prepared similarly using fresh rat blood from naive animals.
Esterases are present in various tissues in the liver and may further degrade the active parent compound prior to reaching the HepC virus that is localized within hepatocyte cells. Experiments with radio-labeled the active parent compound indicate that the active parent compound is excreted from the body through bile (data not shown). […]

A short description of data set [4]: Rat pharmacokinetic study, portal and jugular vein cannula, oral administration. The data set is classed as in vivo. The procedure: Pharamcokinetic studies were conducted in rats containing surgically implanted cannula in the portal and jugular veins. Blood samples were taken simultaneously from both cannula at various times after oral administration of the compounds. In the portal vein, the prodrugs are detected and, in some cases, the active compound, A-B-C-NHCOCHX2, has also been detected. The presence of active compound in the portal vein samples has been attributed to metabolism of the prodrug in transit through the gut wall. […] In the jugular samples, many, but not all, of the prodrugs have been detected in systemic circulation, depending on the hepatic extraction ratio of the prodrug.
as §1, with “Blood samples (100 μl) were collected using sodium heparin as anticoagulant and added to 300 μl of a mixture of acetate buffer (100 mM, pH=6.5):acetonitrile:ethanol:DMSO (2:1:1:2 v/v).” left out, “Standard were prepared similarly using fresh rat blood from naive animals.” left out

Where [5] appears, read: Table 14, read-out: HEPC_REPLICON-LUC Result Value.

The source of these data is patent US20050239751A1, “Heterocyclic anti-viral compounds comprising metabolizable moieties and their uses” (Rigel Pharmaceuticals, Inc., priority 2004, published 2005).

Where two headings read alike, the source gives them in different places.

As for `O=C(CCN(C(=O)C(Cl)Cl)c1ccnc(-c2cc(-c3c(Cl)cccc3Cl)no2)c1)C1CCCN1` (stereo not drawn) [Cpd. 1024, 2,2-Dichloro-N-(2-(3-(2,6-dichlorophenyl)isoxazol-5-yl)pyridin-4-yl)-N-(3-oxo-3-(pyrrolidin-2-yl)propyl)acetamide], in data set [1] (Table 14), the IC50 is less than 1 µM.

As for `O=C(C(Cl)Cl)N(CCN1CCOCC1)c1ccnc(-c2cc(-c3c(Cl)cccc3Cl)no2)c1` [Cpd. 1026, 2,2-Dichloro-N-(2-(3-(2,6-dichlorophenyl)isoxazol-5-yl)pyridin4-yl)-N-(2-morpholinoethyl)acetamide], in data set [1] (Table 14), the IC50 was greater than 20 µM.

With `CCCNC(=O)Oc1c(C)cc(CN(C(=O)C(Cl)Cl)c2ccnc(-c3cc(-c4c(Cl)cccc4Cl)no3)c2)cc1C` [Cpd. 1027, 4-((2,2-Dichloro-N-(2-(3-(2,6-dichlorophenyl)isoxazol-5-yl)pyridin4-yl)acetamido)methyl)-2,6-dimethylphenyl Propylcarbamate], the IC50 in data set [1] (Table 14) was in the range of 1 to 20 µM.

As to `O=C(C(Cl)Cl)N(COCCc1ccccn1)c1ccnc(-c2cc(-c3c(Cl)cccc3Cl)no2)c1` [Cpd. 1028, 2,2-Dichloro-N-(2-(3-(2,6-dichlorophenyl)isoxazol-5-yl)pyridin-4-yl)-N-((2-(pyridin-2-yl)ethoxy)methyl)acetamide], in data set [1] (Table 14), the IC50 was greater than 20 µM.

In the case of `CCOP(=O)(OCC)Oc1ccc(CCCN(C(=O)C(Cl)Cl)c2ccnc(-c3cc(-c4c(Cl)cccc4Cl)no3)c2)cc1` [Cpd. 1038, 4-(3-(2,2-Dichloro-N-(2-(3-(2,6-dichlorophenyl)isoxazol-5-yl)pyridin-4-yl)acetamido)propyl)phenyl Diethyl Phosphate], in data set [1], the IC50 was in the range of 1 to 20 µM.

On to `CC(C)(C)OC(=O)N1CCN(c2ccc(CCCN(C(=O)C(Cl)Cl)c3ccnc(-c4cc(-c5c(Cl)cccc5Cl)no4)c3)cc2)CC1` [Cpd. 1039, tert-Butyl 4-(4-(3-(2,2-Dichloro-N-(2-(3-(2,6-dichlorophenyl)isoxazol-5-yl)pyridin-4yl)acetamido)propyl)phenyl)piperazine-1-carboxylate], for which the IC50 in data set [1] (Table 14) was greater than 20 µM.

Regarding `CC(C)(C)OC(=O)c1ccc(CCCN(C(=O)C(Cl)Cl)c2ccnc(-c3cc(-c4c(Cl)cccc4Cl)no3)c2)cc1` [Cpd. 1040, tert-Butyl 4-(3-(2,2-Dichloro-N-(2-(3-(2,6-dichlorophenyl)isoxazol-5-yl)pyridin-4-yl)acetamido)propyl)benzoate], the IC50 in data set [1] (Table 14) fell in the range of 1 to 20 µM.

Regarding `CC(C)(C)OP(=O)(Cc1ccc(CCCN(C(=O)C(Cl)Cl)c2ccnc(-c3cc(-c4c(Cl)cccc4Cl)no3)c2)cc1)OC(C)(C)C` [Cpd. 1041, Di-tert-Butyl 4-(3-(2,2-Dichloro-N-(2-(3-(2,6-dichlorophenyl)isoxazol-5-yl)pyridin-4-yl)acetamido)propyl)benzylphosphonate], the IC50 in data set [2] (setting [5]) and in data set [1] (Table 14) was 1 to 20 µM each time.

Take `O=C(C(Cl)Cl)N(CCCc1ccc(CP(=O)(O)O)cc1)c1ccnc(-c2cc(-c3c(Cl)cccc3Cl)no2)c1` [Cpd. 1042, 4-(3-(2,2-Dichloro-N-(2-(3-(2,6-dichlorophenyl)isoxazol-5-yl)pyridin-4-yl)acetamido)propyl)benzylphosphonic Acid]: the IC50 in data set [1] (Table 14) was greater than 20 µM.

In the case of `O=C(C(Cl)Cl)N(CCCc1ccc(N2CCNCC2)cc1)c1ccnc(-c2cc(-c3c(Cl)cccc3Cl)no2)c1` [Cpd. 1043, 2,2-Dichloro-N-(2-(3-(2,6-dichlorophenyl)isoxazol-5-yl)pyridin-4-yl)-N-(3-(4-(piperazin-1-yl)phenyl)propyl)acetamide], the IC50 in data set [2] (setting [5]) and in data set [1] (Table 14) was 1 to 20 µM in each case.

For `O=C(c1cccc(-c2cc(-c3c(Cl)cccc3Cl)no2)c1)N(Cc1oc(=O)oc1COC1CC(O)C(O)C(CO)O1)C(=O)C(Cl)Cl` (stereo not drawn) [Cpd. 1044], the IC50 in data set [2] (setting [5]) and in data set [1] (Table 14) was less than 1 µM throughout.

As for `CC(C)(C)c1oc(=O)oc1CN(C(=O)C(Cl)Cl)c1ccnc(-c2cc(-c3c(Cl)cccc3Cl)no2)c1` [Cpd. 1107, 2,2-dichloro-N-[2′-[3′-(2′,6′-dichlorophenyl)-5′-isoxazoyl](4-pyridyl)]-N-[(5-t-butyl-1,3-dioxolene-2-one4-yl)methylene] acetamide], in data set [3], the “Prodrug and resultant active compound levels in bile fluid” value is “High levels”. Moreover, the peak concentration (Cmax) in data set [4] (Sprague-Dawley, rat, whole blood, typical dose of 5 mg/kg, male rats, read-out: Rat PK Cmax, Prodrug) was found to be 510 ng/mL. In data set [4] (portal and jugular vein sampling), the “Rat PK Hepatic extraction ratio of Prodrug” value is 0.97. The IC50 in data set [2] (Tables 3-12, 50% reduction in luciferase emission, 5-2 Luc replicon cells, read-out: Replicon (IC50)) was no more than 10 µM.

By Cmax is commonly meant the peak of the concentration-time curve.
